Tests used:
[1] = species on record: Homo sapiens; assay: Selectivity ratio of Ki for human carbonic anhydrase 2 to Ki for human carbonic anhydrase 9
[2] = species on record: Homo sapiens; assay: Selectivity ratio of Ki for human carbonic anhydrase 1 to Ki for human carbonic anhydrase 9
[3] = molecular target: Carbonic anhydrase 9 (Homo sapiens, UniProt Q16790); assay: Inhibition of human carbonic anhydrase 9 preincubated for 15 mins by CO2 hydration stopped-flow assay
[4] = molecular target: Carbonic anhydrase 2 (Homo sapiens, UniProt P00918); assay: Inhibition of human carbonic anhydrase 2 preincubated for 15 mins by CO2 hydration stopped-flow assay

Ki [4] [nM] | Structure (SMILES) | Ratio Ki [1] | Ratio Ki [2] | Ki [3] [nM]
 | CC(=O)OC[C@H]1O[C@@H](NS(N)(=O)=O)[C@H](OC(C)=O)[C@@H](OC(C)=O)[C@H]1OC(C)=O | < 17 | 480 | 5
 | CC(=O)OC[C@H]1O[C@H](NS(N)(=O)=O)C=C[C@@H]1OC(C)=O |  |  | 9
 | CC(=O)OC[C@H]1O[C@@H](NS(N)(=O)=O)[C@H](OC(C)=O)[C@@H](OC(C)=O)[C@@H]1OC(C)=O | < 17 | 480 | 5
 | C[C@@H]1O[C@@H](NS(N)(=O)=O)[C@@H](O)[C@H](O)[C@H]1O | 7 |  | 900
 | CC(=O)OC[C@H]1O[C@@H](NS(N)(=O)=O)[C@@H](OC(C)=O)[C@@H](OC(C)=O)[C@@H]1OC(C)=O | < 17 | 480 | 
11.3 | NS(=O)(=O)OC[C@H]1O[C@H](OC[C@H]2[C@H](O)[C@@H](O)[C@H](O)O[C@@H]2CO)[C@H](O)[C@@H](O)[C@@H]1O |  |  | 
